Source: patent US20220372014A1, “NEUROPROTECTIVE COMPOUNDS AND METHODS OF USE THEREOF” (The Johns Hopkins University, priority 2019, published 2022)

Tests used:
MIF = target: T1, MIF (Homo sapiens, UniProt P14174); assay: Nuclease assay of Example 3 (MIF inhibitory activity, Table 4); assay type: biochemical; set-up: (%) inhibition of MIF nuclease activity: concentration or dose not given beside the values; details: nuclease assay of Example 3
T1 sequence (P14174 1-115): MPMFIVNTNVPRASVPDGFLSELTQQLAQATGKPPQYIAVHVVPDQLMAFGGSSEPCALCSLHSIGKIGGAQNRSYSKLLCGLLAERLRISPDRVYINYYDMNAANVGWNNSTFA
Procedure, shortened: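 Human genomic DNA (200 ng), pcDNA (200 ng) or PS^30-type substrates (1 μM) were incubated with MIF (0.25-8 μM final) in 10 mM Tris-HCl pH 7.0, 10 mM MgCl2, 1 mM DTT at 37 °C for 1 h (pcDNA, small substrates) or 4 h (genomic DNA). Cleavage was assessed by agarose or PAGE electrophoresis with EtBr staining and chemiluminescent detection of biotin-labelled DNA.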

[1] = tested on: HeLa cells or neuronal cells; assay: Cell death assay of Example 3 (MNNG, alamarBlue; protection against parthanatos, Table 4); assay type: cell-based; details: 1 μM test compound, MNNG-induced cell death, alamarBlue
Procedure, shortened: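 HeLa or neuronal cells (1×10^4/well) were pretreated 1 h at 37° C with 1 μM compound, exposed to MNNG for 15 min, washed, then re-incubated 18 h with 1 μM compound. Viability was read by alamarBlue fluorescence (ex 560/em 590 nm). Cell death was expressed relative to control wells.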

Row | Compound | (%) inhibition of MIF nuclease activity (MIF) | (%) inhibition of cell death [1]
1 | COc1ccc(CC[C@H]2OC(=O)[C@@H]3CCCCN3C(=O)C(=O)C(C)(C)COC(=O)C=CCCN(C)C(=O)[C@H](Cc3ccccc3)NC(=O)[C@H](COC(C)(C)C)N(C)C(=O)C(c3ccccc3)NC(=O)[C@H](C)N(C)C(=O)COc3cccc2c3)cc1OC (stereo partly drawn) [compound 53] | 14.1% | 58.3%
2 | COc1ccc(CC[C@H]2OC(=O)[C@@H]3CCCCN3C(=O)C(=O)C(C)(C)COC(=O)C=CCCN(C)C(=O)[C@@H](Cc3ccccc3)NC(=O)[C@H](COC(C)(C)C)N(C)C(=O)C(c3ccccc3)NC(=O)[C@H](C)N(C)C(=O)COc3cccc2c3)cc1OC (stereo partly drawn) [compound 54] | 15.9% | 56.0%
3 | COc1ccc(CC[C@H]2OC(=O)[C@@H]3CCCCN3C(=O)C(=O)C(C)(C)COC(=O)C=CCCN(C)C(=O)[C@H](Cc3ccc(F)cc3)NC(=O)[C@H](COC(C)(C)C)N(C)C(=O)C(c3ccccc3)NC(=O)[C@H](C)N(C)C(=O)COc3cccc2c3)cc1OC (stereo partly drawn) [compound 55] | 13.6% | 59.9%
4 | COc1ccc(CC[C@H]2OC(=O)[C@@H]3CCCCN3C(=O)C(=O)C(C)(C)COC(=O)C=CCCN(C)C(=O)[C@H](CC3CCCCC3)NC(=O)[C@H](COC(C)(C)C)N(C)C(=O)C(c3ccccc3)NC(=O)[C@H](C)N(C)C(=O)COc3cccc2c3)cc1OC (stereo partly drawn) [compound 57] | 18.4% | 59.3%
5 | COc1ccc(CC[C@H]2OC(=O)[C@@H]3CCCCN3C(=O)C(=O)C(C)(C)COC(=O)C=CCCN(C)C(=O)[C@H](Cc3ccc4ccccc4c3)NC(=O)[C@H](COC(C)(C)C)N(C)C(=O)C(c3ccccc3)NC(=O)[C@H](C)N(C)C(=O)COc3cccc2c3)cc1OC (stereo partly drawn) [compound 58] | 16.5% | 56.1%
6 | COc1ccc(CC[C@H]2OC(=O)[C@@H]3CCCCN3C(=O)C(=O)C(C)(C)COC(=O)C=CCCN(C)C(=O)[C@H](C(C)C)NC(=O)[C@H](COC(C)(C)C)N(C)C(=O)C(c3ccccc3)NC(=O)[C@H](C)N(C)C(=O)COc3cccc2c3)cc1OC (stereo partly drawn) [compound 59] | 13.3% | 58.9%
7 | COc1ccc(CC[C@H]2OC(=O)[C@@H]3CCCCN3C(=O)C(=O)C(C)(C)COC(=O)C=CCCN(C)C(=O)[C@H](c3ccccc3)NC(=O)[C@H](COC(C)(C)C)N(C)C(=O)C(c3ccccc3)NC(=O)[C@H](C)N(C)C(=O)COc3cccc2c3)cc1OC (stereo partly drawn) [compound 60] | 59.4% | 55.4%
8 | COc1ccc(CC[C@H]2OC(=O)[C@@H]3CCCCN3C(=O)C(=O)C(C)(C)COC(=O)C=CCCN(C)C(=O)CNC(=O)[C@H](Cc3ccccc3)N(C)C(=O)[C@@H](C)NC(=O)CN(C)C(=O)COc3cccc2c3)cc1OC [compound 61] | 19.2% | 53.8%
9 | COc1ccc(CC[C@H]2OC(=O)[C@@H]3CCCCN3C(=O)C(=O)C(C)(C)COC(=O)C=CCCN(C)C(=O)[C@H](C)NC(=O)[C@H](Cc3ccccc3)N(C)C(=O)[C@@H](C)NC(=O)CN(C)C(=O)COc3cccc2c3)cc1OC [compound 62] | 13.1% | 53.7%
10 | CCC[C@@H]1NC(=O)[C@H](Cc2ccccc2)N(C)C(=O)[C@@H](C)NC(=O)CN(C)C(=O)COc2cccc(c2)[C@@H](CCc2ccc(OC)c(OC)c2)OC(=O)[C@@H]2CCCCN2C(=O)C(=O)C(C)(C)COC(=O)C=CCCN(C)C1=O [compound 64] | 27.2% | 52.3%
11 | COCC[C@@H]1NC(=O)[C@H](Cc2ccccc2)N(C)C(=O)[C@@H](C)NC(=O)CN(C)C(=O)COc2cccc(c2)[C@@H](CCc2ccc(OC)c(OC)c2)OC(=O)[C@@H]2CCCCN2C(=O)C(=O)C(C)(C)COC(=O)C=CCCN(C)C1=O [compound 65] | 20.1% | 54.4%
12 | COc1ccc(CC[C@H]2OC(=O)[C@@H]3CCCCN3C(=O)C(=O)C(C)(C)COC(=O)C=CCCN(C)C(=O)[C@H](CC(C)C)NC(=O)[C@H](Cc3ccccc3)N(C)C(=O)[C@@H](C)NC(=O)CN(C)C(=O)COc3cccc2c3)cc1OC [compound 66] | 67.0% | 71.4%
13 | COc1ccc(CC[C@H]2OC(=O)[C@@H]3CCCCN3C(=O)C(=O)C(C)(C)COC(=O)C=CCCN(C)C(=O)[C@@H](CC(C)C)NC(=O)[C@H](Cc3ccccc3)N(C)C(=O)[C@@H](C)NC(=O)CN(C)C(=O)COc3cccc2c3)cc1OC [compound 67] | 76.3% | 73.7%
14 | COc1ccc(CC[C@H]2OC(=O)[C@@H]3CCCCN3C(=O)C(=O)C(C)(C)COC(=O)C=CCCN(C)C(=O)[C@H](Cc3ccccc3)NC(=O)[C@H](Cc3ccccc3)N(C)C(=O)[C@@H](C)NC(=O)CN(C)C(=O)COc3cccc2c3)cc1OC [compound 68] | 44.0% | 58.0%
15 | COc1ccc(CC[C@H]2OC(=O)[C@@H]3CCCCN3C(=O)C(=O)C(C)(C)COC(=O)C=CCCN(C)C(=O)[C@@H](Cc3ccccc3)NC(=O)[C@H](Cc3ccccc3)N(C)C(=O)[C@@H](C)NC(=O)CN(C)C(=O)COc3cccc2c3)cc1OC [compound 69] | 20.7% | 55.7%
16 | COc1ccc(CC[C@H]2OC(=O)[C@@H]3CCCCN3C(=O)C(=O)C(C)(C)COC(=O)C=CCCN(C)C(=O)[C@H](Cc3ccc(F)cc3)NC(=O)[C@H](Cc3ccccc3)N(C)C(=O)[C@@H](C)NC(=O)CN(C)C(=O)COc3cccc2c3)cc1OC [compound 70] | 25.2% | 53.8%
17 | COc1ccc(CC[C@H]2OC(=O)[C@@H]3CCCCN3C(=O)C(=O)C(C)(C)COC(=O)C=CCCN(C)C(=O)[C@@H]3CCCN3C(=O)[C@H](Cc3ccccc3)N(C)C(=O)[C@@H](C)NC(=O)CN(C)C(=O)COc3cccc2c3)cc1OC [compound 71] | 25.3% | 57.0%
18 | COc1ccc(CC[C@H]2OC(=O)[C@@H]3CCCCN3C(=O)C(=O)C(C)(C)COC(=O)C=CCCN(C)C(=O)[C@H](CC3CCCCC3)NC(=O)[C@H](Cc3ccccc3)N(C)C(=O)[C@@H](C)NC(=O)CN(C)C(=O)COc3cccc2c3)cc1OC [compound 72] | 21.2% | 55.3%
19 | COc1ccc(CC[C@H]2OC(=O)[C@@H]3CCCCN3C(=O)C(=O)C(C)(C)COC(=O)C=CCCN(C)C(=O)[C@H](Cc3ccc4ccccc4c3)NC(=O)[C@H](Cc3ccccc3)N(C)C(=O)[C@@H](C)NC(=O)CN(C)C(=O)COc3cccc2c3)cc1OC [compound 73] | 40.2% | 53.0%
20 | COc1ccc(CC[C@H]2OC(=O)[C@@H]3CCCCN3C(=O)C(=O)C(C)(C)COC(=O)C=CCCN(C)C(=O)[C@H](C(C)C)NC(=O)[C@H](Cc3ccccc3)N(C)C(=O)[C@@H](C)NC(=O)CN(C)C(=O)COc3cccc2c3)cc1OC [compound 74] | 31.5% | 52.6%
21 | COc1ccc(CC[C@H]2OC(=O)[C@@H]3CCCCN3C(=O)C(=O)C(C)(C)COC(=O)C=CCCN(C)C(=O)[C@H](c3ccccc3)NC(=O)[C@H](Cc3ccccc3)N(C)C(=O)[C@@H](C)NC(=O)CN(C)C(=O)COc3cccc2c3)cc1OC [compound 75] | 34.9% | 52.8%
22 | COc1ccc(CC[C@H]2OC(=O)[C@@H]3CCCCN3C(=O)C(=O)C(C)(C)COC(=O)C=CCCN(C)C(=O)[C@@H](C)NC(=O)[C@H](C(C)C)N(C)C(=O)[C@@H](Cc3ccccc3)NC(=O)[C@H](CC(C)C)N(C)C(=O)CCC(=O)Nc3cccc2c3)cc1OC [compound 78] | 9.0% | 44.7%
23 | CCC[C@@H]1NC(=O)[C@H](C(C)C)N(C)C(=O)[C@@H](Cc2ccccc2)NC(=O)[C@H](CC(C)C)N(C)C(=O)CCC(=O)Nc2cccc(c2)[C@@H](CCc2ccc(OC)c(OC)c2)OC(=O)[C@@H]2CCCCN2C(=O)C(=O)C(C)(C)COC(=O)C=CCCN(C)C1=O [compound 79] | 6.7% | 43.4%
24 | COCC[C@@H]1NC(=O)[C@H](C(C)C)N(C)C(=O)[C@@H](Cc2ccccc2)NC(=O)[C@H](CC(C)C)N(C)C(=O)CCC(=O)Nc2cccc(c2)[C@@H](CCc2ccc(OC)c(OC)c2)OC(=O)[C@@H]2CCCCN2C(=O)C(=O)C(C)(C)COC(=O)C=CCCN(C)C1=O [compound 80] | 10.3% | 49.5%
